Laboratory results: ChEMBL document CHEMBL1143834, “Activity of Garenoxacin against Macrolide-Susceptible and -Resistant Mycoplasma pneumoniae” (2007)
≈ marks a conversion by molar mass, not a printed value.

Key:
Assay type in all cases: functional
[1] = system: Mycoplasmoides pneumoniae; experiment: Antimicrobial activity against macrolide-resistant Mycoplasma pneumoniae with 23S rRNA A2064G mutant isolate 4
[2] = system: Mycoplasmoides pneumoniae; experiment: Antimicrobial activity against macrolide-resistant Mycoplasma pneumoniae with 23S rRNA A2063G mutant isolate 1
[3] = system: Mycoplasmoides pneumoniae; experiment: Antimicrobial activity against macrolide-susceptible Mycoplasma pneumoniae Mac
[4] = system: Mycoplasmoides pneumoniae; experiment: Antimicrobial activity against macrolide-resistant Mycoplasma pneumoniae with 23S rRNA A2064G mutant isolate 2
[5] = system: Mycoplasmoides pneumoniae; experiment: Antimicrobial activity against macrolide-resistant Mycoplasma pneumoniae with 23S rRNA A2063G mutant isolate 6
[6] = system: Mycoplasmoides pneumoniae; experiment: Antimicrobial activity against macrolide-susceptible Mycoplasma pneumoniae FH
[7] = system: Mycoplasmoides pneumoniae; experiment: Antimicrobial activity against macrolide-susceptible Mycoplasma pneumoniae M129

| Compound | MIC [1] | MIC [2] | MIC [3] | MIC [4] | MIC [5] | MIC [6] | MIC [7] |
| --- | --- | --- | --- | --- | --- | --- | --- |
| C[C@H]1NCc2cc(-c3ccc4c(=O)c(C(=O)O)cn(C5CC5)c4c3OC(F)F)ccc21 [GARENOXACIN] | 0.016 µg/mL (≈ 0.0375 µM) | 0.016 µg/mL (≈ 0.0375 µM) | 0.016 µg/mL (≈ 0.0375 µM) | 0.016 µg/mL (≈ 0.0375 µM) | 0.031 µg/mL (≈ 0.0727 µM) | 0.016 µg/mL (≈ 0.0375 µM) | 0.016 µg/mL (≈ 0.0375 µM) |
| CN(C)c1ccc(O)c2c1C[C@H]1C[C@H]3[C@H](N(C)C)C(O)=C(C(N)=O)C(=O)[C@@]3(O)C(O)=C1C2=O [MINOCYCLINE] | 0.25 µg/mL (≈ 0.546 µM) | 0.25 µg/mL (≈ 0.546 µM) | 0.25 µg/mL (≈ 0.546 µM) | 0.25 µg/mL (≈ 0.546 µM) | 0.25 µg/mL (≈ 0.546 µM) | 0.5 µg/mL (≈ 1.09 µM) | 0.25 µg/mL (≈ 0.546 µM) |
| CC[C@H]1OC(=O)[C@H](C)[C@@H](O[C@H]2C[C@@](C)(OC)[C@@H](O)[C@H](C)O2)[C@H](C)[C@@H](O[C@@H]2O[C@H](C)C[C@H](N(C)C)[C@H]2O)[C@](C)(OC)C[C@@H](C)C(=O)[C@H](C)[C@@H](O)[C@]1(C)O [CLARITHROMYCIN] | 8 µg/mL (≈ 10.7 µM) | 32 µg/mL (≈ 42.8 µM) | 0.002 µg/mL (≈ 0.00267 µM) | 8 µg/mL (≈ 10.7 µM) | 32 µg/mL (≈ 42.8 µM) | 0.004 µg/mL (≈ 0.00535 µM) | 0.002 µg/mL (≈ 0.00267 µM) |
| COc1c(N2CCNC(C)C2)c(F)cc2c(=O)c(C(=O)O)cn(C3CC3)c12 (stereo not given) [GATIFLOXACIN] | 0.031 µg/mL (≈ 0.0826 µM) | 0.031 µg/mL (≈ 0.0826 µM) | 0.063 µg/mL (≈ 0.168 µM) | 0.063 µg/mL (≈ 0.168 µM) | 0.063 µg/mL (≈ 0.168 µM) | 0.063 µg/mL (≈ 0.168 µM) | 0.063 µg/mL (≈ 0.168 µM) |
| C[C@H]1COc2c(N3CCN(C)CC3)c(F)cc3c(=O)c(C(=O)O)cn1c23.C[C@H]1COc2c(N3CCN(C)CC3)c(F)cc3c(=O)c(C(=O)O)cn1c23.O [LEVOFLOXACIN] | 0.25 µg/mL | 0.25 µg/mL | 0.25 µg/mL | 0.25 µg/mL | 0.5 µg/mL | 0.5 µg/mL | 0.25 µg/mL |
